One substance from patent US8367401B2, “Replication competent hepatitis C virus and methods of use” (Board of Regents, The University of Texas System, priority 1999, dated 2013) can be followed below.

One series has as its system En5-3 cells. The experiment in a line: SEAP expression from En5-3 cells without replicon. It counts as cell-based. Conditions: interferon treatment. The text has this: FIG. 22. Suppression of HCV replicon amplification by interferon-α2b. (A) SEAP activity secreted from cells supporting replication of Btat2ANeo(SI) over successive 24 hr intervals following addition of interferon to the medium. (B) SEAP secretion from Ntat2ANeo(RG) cells. Interferon concentrations were: (*) 100 units/ml; (X) 10 units/ml; (▴) 1 unit/ml; (▪) no interferon. SEAP expression from En5-3 cells without interferon treatment was also shown (♦). SEAP expression from En5-3 cells was not affected by interferon treatment.
(§1) Alkaline phosphatase assay. […] The luminescent signal was read using a TD-20/20 Luminometer (Turner Designs, Inc.). In most time course experiments, the culture medium was replaced every 24 hrs. Thus, the SEAP activity measured in these fluids reflected the daily production of SEAP by the cells.

Series [1] has as its system Ntat2ANeo(RG) replicon (HCV-N) in En5-3 cells. Put plainly: Interferon suppression of SEAP secretion, Ntat2ANeo(RG) replicon cell line. The format is cell-based, hepatitis C virus. Here is the method:
as §1
(§2) Interferon treatment of cell cultures. Selected replicon-bearing cell lines were seeded into 12 well plates. The media was replaced 24 hrs later with fresh, G418 free media containing various concentrations of recombinant interferon-α2B ranging from 0 to 100 units/ml. The medium was subsequently completely removed every 24 hrs, the cells washed, and refed with fresh interferon-containing media. SEAP activity was measured in the media removed from the cells as described above.
(§3) Interferon suppression of HCV RNA replication. […] Recently seeded cell cultures were fed with media containing various concentrations of recombinant interferon-α2B ranging from 0 to 100 units/ml. The medium was subsequently removed completely at 24 hr intervals, and the cells were washed thoroughly and refed with fresh interferon-containing media. […] The decline in intracellular RNA preceded the decreases in SEAP secretion by approximately 24 hrs, most likely reflecting the kinetic delay in tat signaling of SEAP secretion.
In general terms: Replicon systems follow genome replication, usually without infectious particles.

A further series relates to Et2AN cell line. The experiment in a line: SEAP secretion by Et2AN control cell line (tat2ANeo under EMCV IRES, no replicon). The format is cell-based.
From the text: as §1
This permits serial measurements of the kinetics of RNA amplification in single cultures of cells (FIG. 21). One potential drawback of this system is that suppression of SEAP activity by candidate antiviral compounds could result from inhibition of the activity of either the 2A protease or tat, or even (as with other published dicistronic HCV replicons) the EMCV IRES. To address this issue, we established a stably transformed cell line that constitutively expresses the tat2ANeo polyprotein under the translational control of the EMCV IRES. This cell line (Et2AN) was established by transfection of pEt2AN DNA (FIG. 16) into En5-3 cells, followed by selection with G418.

Series [2] deals with Btat2ANeo(SI) replicon (Con1 HCV) in En5-3 cells. The experiment in a line: Interferon suppression of SEAP secretion, Btat2ANeo(SI) replicon cell line. The format is cell-based, hepatitis C virus. Here is the method:
as §1, §2, §3

Where [3] appears, read: highest concentration of interferon tested, 100 units/ml.
The mark [4] stands for this setting: interferon 0 to 100 units/ml, media replaced at 24 hr intervals, stable G418 resistant cell clone.

On to interferon-α2b, for which the SEAP expression result in the series on En5-3 cells was “not affected”. Besides, the cellular cytotoxicity entry in series [1] (100 units/ml) and in series [2] (100 units/ml) was “absence of demonstrable cellular cytotoxicity” in each case. In addition, the “SEAP expression over time” value in series [1] (setting [3]) and in series [2] (setting [3]) was “SEAP expression declined over time” each time. Also, the SEAP secretion entry in series [1] (setting [4]) and in series [2] (setting [4]) was “dose-dependent inhibition of SEAP secretion” in each case. Further, the “suppression of the secretion of SEAP” value in the series with Et2AN cell line (comparable concentrations of interferon) is recorded as “no suppression”. Moreover, the nonspecific toxicity entry in the series on Et2AN cell line (concentrations of interferon tested) was “absence of nonspecific toxicity”.
